Assay results: patent publication US8063071B2 (GlaxoSmithKline, LLC, priority 2007, dated 2011)
Where a name gives a salt, the structure may show the parent alone.

Assays:
[1] = molecular target: T1, Recombinant human IKKβ (residues 1-737) (Homo sapiens, UniProt O14920); assay: IKK2 assay (TR-FRET); assay type: biochemical; conditions: ATP 1 μM final, read-out: pIC50 against IKK2 (converted)
T1 construct: Recombinant human IKKβ (residues 1-737); GST (C); made in house
T1 sequence (O14920 1-737): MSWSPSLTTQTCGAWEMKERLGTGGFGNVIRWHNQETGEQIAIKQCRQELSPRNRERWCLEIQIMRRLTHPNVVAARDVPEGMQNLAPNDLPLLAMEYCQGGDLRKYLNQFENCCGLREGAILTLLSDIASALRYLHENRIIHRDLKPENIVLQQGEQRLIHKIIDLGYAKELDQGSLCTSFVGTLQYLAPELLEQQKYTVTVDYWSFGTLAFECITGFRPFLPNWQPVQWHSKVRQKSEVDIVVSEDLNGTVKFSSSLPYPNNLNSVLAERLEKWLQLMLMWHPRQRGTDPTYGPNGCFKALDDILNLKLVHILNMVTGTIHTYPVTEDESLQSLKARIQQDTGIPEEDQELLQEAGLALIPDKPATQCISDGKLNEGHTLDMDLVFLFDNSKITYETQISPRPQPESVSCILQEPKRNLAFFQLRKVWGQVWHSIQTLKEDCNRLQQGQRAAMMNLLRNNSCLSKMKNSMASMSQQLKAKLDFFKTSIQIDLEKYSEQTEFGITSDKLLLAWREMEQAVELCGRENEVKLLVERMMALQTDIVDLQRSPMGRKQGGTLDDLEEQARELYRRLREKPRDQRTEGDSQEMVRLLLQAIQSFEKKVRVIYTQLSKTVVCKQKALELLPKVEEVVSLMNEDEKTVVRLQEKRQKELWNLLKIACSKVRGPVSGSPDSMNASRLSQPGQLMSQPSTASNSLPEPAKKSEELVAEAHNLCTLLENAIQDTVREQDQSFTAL
Procedure, shortened: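 TR-FRET readout (665 nm over 620 nm Eu reference) of GST-IB Ser32/36 phosphorylation after 60 min detection. Reaction: 1 μM ATP, 25 nM substrate, 0.5-5 nM GST-fused IKKβ 1-737 from baculovirus, pH 7.4 HEPES buffer, 1.7% DMSO, 15 min room temperature, EDTA-terminated.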

[2] = system: human monocyte stimulated cytokine production (TNF-α); assay: Monocyte assay (LPS-stimulated TNF-α production); assay type: cell-based; conditions: for IC50: 24 h, 200 ng/mL LPS, TNF-α by ELISA; for inhibition at 0.3 µM: read-out: inhibition at 300 nM in the monocyte assay
Procedure, shortened: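 TNF-α release was measured by ELISA after 24 hrs at 37 C. Cells were stimulated with 200 ng/mL E. coli LPS, with compound added 30 minutes beforehand (0.1% DMSO vehicle). Cells were Ficoll/MACS-isolated CD14+ human monocytes adhered at 1×10^6 cells/mL, and viability was checked by trypan blue.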

| IC50 [1] [µM] | IC50 [2] [nM] | SMILES | inhibition at 0.3 µM [2] [%] |
| --- | --- | --- | --- |
| ≤ 10 | ≤ 1500 | CCS(=O)(=O)N1CCC(c2c[nH]c3c(C(N)=O)cc(-c4cc(CNC)ccc4F)cc23)CC1 [Example 333, 3-[1-(ethylsulfonyl)-4-piperidinyl]-5-{2-fluoro-5-[(methylamino)methyl]phenyl}-1H-indole-7-carboxamide trifluoroacetate] |  |
| ≤ 10 | ≤ 1500 | CCCNCc1ccc(F)c(-c2cc(C(N)=O)c3[nH]cc(C4CCN(S(=O)(=O)CC)CC4)c3c2)c1 [Example 334, 3-[1-(ethylsulfonyl)-4-piperidinyl]-5-{2-fluoro-5-[(propylamino)methyl]phenyl}-1H-indole-7-carboxamide trifluoroacetate] |  |
| ≤ 10 | ≤ 1500 | CCS(=O)(=O)N1CCC(c2c[nH]c3c(C(N)=O)cc(-c4cc(CNCC(C)C)ccc4F)cc23)CC1 [Example 335, 3-[1-(ethylsulfonyl)-4-piperidinyl]-5-(2-fluoro-5-{[(2-methylpropyl)amino]methyl}phenyl)-1H-indole-7-carboxamide trifluoroacetate] |  |
| ≤ 10 | ≤ 1500 | CCS(=O)(=O)N1CCC(c2c[nH]c3c(C(N)=O)cc(-c4cc(CNCC(C)(C)C)ccc4F)cc23)CC1 [Example 336, 5-(5-{[(2,2-dimethylpropyl)amino]methyl}-2-fluorophenyl)-3-[1-(ethylsulfonyl)-4-piperidinyl]-1H-indole-7-carboxamide trifluoroacetate] |  |
| ≤ 10 | ≤ 1500 | CCS(=O)(=O)N1CCC(c2c[nH]c3c(C(N)=O)cc(-c4cc(CN[C@@H](C)C(C)C)ccc4F)cc23)CC1 [Example 337, 5-[5-({[(1S)-1,2-dimethylpropyl]amino}methyl)-2-fluorophenyl]-3-[1-(ethylsulfonyl)-4-piperidinyl]-1H-indole-7-carboxamide trifluoroacetate] |  |
| ≤ 10 | > 1000 | CCS(=O)(=O)N1CCC(c2c[nH]c3c(C(N)=O)cc(-c4cc(CN[C@H](C)C(C)C)ccc4F)cc23)CC1 [Example 338, 5-[5-({[(1R)-1,2-dimethylpropyl]amino}methyl)-2-fluorophenyl]-3-[1-(ethylsulfonyl)-4-piperidinyl]-1H-indole-7-carboxamide trifluoroacetate] |  |
| ≤ 10 | > 1000 | CCS(=O)(=O)N1CCC(c2c[nH]c3c(C(N)=O)cc(-c4cc(CNCC5CC5)ccc4F)cc23)CC1 [Example 339, 5-(5-{[(cyclopropylmethyl)amino]methyl}-2-fluorophenyl)-3-[1-(ethylsulfonyl)-4-piperidinyl]-1H-indole-7-carboxamide trifluoroacetate] |  |
| ≤ 10 | > 1000 | CCS(=O)(=O)N1CCC(c2c[nH]c3c(C(N)=O)cc(-c4cc(CN5CCCC5)ccc4F)cc23)CC1 [Example 340, 3-[1-(ethylsulfonyl)-4-piperidinyl]-5-[2-fluoro-5-(1-pyrrolidinylmethyl)phenyl]-1H-indole-7-carboxamide trifluoroacetate] |  |
| ≤ 10 | > 1000 | CCS(=O)(=O)N1CCC(c2c[nH]c3c(C(N)=O)cc(-c4cc(CN5CCOCC5)ccc4F)cc23)CC1 [Example 341, 3-[1-(ethylsulfonyl)-4-piperidinyl]-5-[2-fluoro-5-(4-morpholinylmethyl)phenyl]-1H-indole-7-carboxamide trifluoroacetate] |  |
| ≤ 10 | ≤ 1500 | CCS(=O)(=O)N1CCC(c2c[nH]c3c(C(N)=O)cc(-c4cc(CNCCOC)ccc4F)cc23)CC1 [Example 342, 3-[1-(ethylsulfonyl)-4-piperidinyl]-5-[2-fluoro-5-({[2-(methyloxy)ethyl]amino}methyl)phenyl]-1H-indole-7-carboxamide trifluoroacetate] |  |
| ≤ 10 | ≤ 1500 | CCS(=O)(=O)N1CCC(c2c[nH]c3c(C(N)=O)cc(-c4cc(CNCCCOC)ccc4F)cc23)CC1 [Example 343, 3-[1-(ethylsulfonyl)-4-piperidinyl]-5-[2-fluoro-5-({[3-(methyloxy)propyl]amino}methyl)phenyl]-1H-indole-7-carboxamide trifluoroacetate] |  |
| ≤ 10 | ≤ 1500 | CCNCCc1cccc(-c2cc(C(N)=O)c3[nH]cc(C4CCN(S(=O)(=O)CC)CC4)c3c2)c1 [Example 346, 5-{3-[2-(ethylamino)ethyl]phenyl}-3-[1-(ethylsulfonyl)-4-piperidinyl]-1H-indole-7-carboxamide trifluoroacetate] |  |

More lines, now with the values behind:

| SMILES | IC50 [1] [µM] | IC50 [2] [nM] | inhibition at 0.3 µM [2] [%] |
| --- | --- | --- | --- |
| CCS(=O)(=O)N1CCC(c2c[nH]c3c(C(N)=O)cc(-c4cccc(C5CCCN5C)c4)cc23)CC1 (centres unmarked) [Example 344, 3-[1-(ethylsulfonyl)-4-piperidinyl]-5-[3-(1-methyl-2-pyrrolidinyl)phenyl]-1H-indole-7-carboxamide trifluoroacetate] | ≤ 10 | ≤ 1500 |  |
| CCS(=O)(=O)N1CCC(c2c[nH]c3c(C(N)=O)cc(-c4cccc(CCNCC(C)C)c4)cc23)CC1 [Example 345, 3-[1-(ethylsulfonyl)-4-piperidinyl]-5-(3-{2-[(2-methylpropyl)amino]ethyl}phenyl)-1H-indole-7-carboxamide trifluoroacetate] | ≤ 10 |  | 0 to 60 |
| CCCNCCc1cccc(-c2cc(C(N)=O)c3[nH]cc(C4CCN(S(=O)(=O)CC)CC4)c3c2)c1 [Example 347, 3-[1-(ethylsulfonyl)-4-piperidinyl]-5-{3-[2-(propylamino)ethyl]phenyl}-1H-indole-7-carboxamide trifluoroacetate] | ≤ 10 |  | 0 to 60 |
| CCS(=O)(=O)N1CCC(c2c[nH]c3c(C(N)=O)cc(-c4cccc(CCN(C)C)c4)cc23)CC1 [Example 348, 5-{3-[2-(dimethylamino)ethyl]phenyl}-3-[1-(ethylsulfonyl)-4-piperidinyl]-1H-indole-7-carboxamide trifluoroacetate] | ≤ 10 | ≤ 1500 |  |
| CCCN(CCC)CCc1cccc(-c2cc(C(N)=O)c3[nH]cc(C4CCN(S(=O)(=O)CC)CC4)c3c2)c1 [Example 349, 5-{3-[2-(dipropylamino)ethyl]phenyl}-3-[1-(ethylsulfonyl)-4-piperidinyl]-1H-indole-7-carboxamide trifluoroacetate] | ≤ 10 |  | 0 to 60 |
| CCS(=O)(=O)N1CCC(c2c[nH]c3c(C(N)=O)cc(-c4cccc(CNCCn5nc(C)cc5C)c4)cc23)CC1 [Example 350, 5-[3-({[2-(3,5-dimethyl-1H-pyrazol-1-yl)ethyl]amino}methyl)phenyl]-3-[1-(ethylsulfonyl)-4-piperidinyl]-1H-indole-7-carboxamide trifluoroacetate] | ≤ 10 |  | 0 to 60 |
| CCS(=O)(=O)N1CCC(c2c[nH]c3c(C(N)=O)cc(-c4csc(CN5CCOCC5)n4)cc23)CC1 [Example 351, 3-[1-(ethylsulfonyl)-4-piperidinyl]-5-[2-(4-morpholinylmethyl)-1,3-thiazol-4-yl]-1H-indole-7-carboxamide trifluoroacetate] | ≤ 10 |  | 0 to 60 |
| CCS(=O)(=O)N1CCC(c2c[nH]c3c(C(N)=O)cc(-c4csc(CNCC(C)C)n4)cc23)CC1 [Example 352, 3-[1-(ethylsulfonyl)-4-piperidinyl]-5-(2-{[(2-methylpropyl)amino]methyl}-1,3-thiazol-4-yl)-1H-indole-7-carboxamide trifluoroacetate] | ≤ 10 |  | 0 to 60 |
| CCS(=O)(=O)N1CCC(c2c[nH]c3c(C(N)=O)cc(-c4csc(CN5CCCC5)n4)cc23)CC1 [Example 353, 3-[1-(ethylsulfonyl)-4-piperidinyl]-5-[2-(1-pyrrolidinylmethyl)-1,3-thiazol-4-yl]-1H-indole-7-carboxamide] | ≤ 10 | ≤ 1500 | 0 to 60 |
| CCS(=O)(=O)N1CCC(c2c[nH]c3c(C(N)=O)cc(-c4csc(CN(C)C)n4)cc23)CC1 [Example 355, 5-{2-[(dimethylamino)methyl]-1,3-thiazol-4-yl}-3-[1-(ethylsulfonyl)-4-piperidinyl]-1H-indole-7-carboxamide trifluoroacetate] | ≤ 10 |  | 0 to 60 |
| CCN(C)Cc1nc(-c2cc(C(N)=O)c3[nH]cc(C4CCN(S(=O)(=O)CC)CC4)c3c2)cs1 [Example 356, 5-(2-{[ethyl(methyl)amino]methyl}-1,3-thiazol-4-yl)-3-[1-(ethylsulfonyl)-4-piperidinyl]-1H-indole-7-carboxamide trifluoroacetate] | ≤ 10 | ≤ 1500 |  |
